This note sets out measurements from PMC5908784, “Extracellular loops 2 and 3 of the calcitonin receptor selectively modify agonist binding and efficacy” (Biochemical Pharmacology, 2018).

Broadly, the Ki is a measure of affinity in units of concentration, obtained from inhibition or displacement.

Residue numbers refer to the chain shown, from its start. Where no end group is shown, it is not given here.

Holding throughout (assay): Homologous whole cell competition binding
Common to all, as to conditions: homologous competition of 125I-sCT(8-32), whole cells, mean ± S.E.M., SEM

One assay has as its target T1, hCTR S292A (Homo sapiens, UniProt P30988, S292A).
T1 construct: expressed in transfected cells
T1 sequence (P30988 25-474 S292A): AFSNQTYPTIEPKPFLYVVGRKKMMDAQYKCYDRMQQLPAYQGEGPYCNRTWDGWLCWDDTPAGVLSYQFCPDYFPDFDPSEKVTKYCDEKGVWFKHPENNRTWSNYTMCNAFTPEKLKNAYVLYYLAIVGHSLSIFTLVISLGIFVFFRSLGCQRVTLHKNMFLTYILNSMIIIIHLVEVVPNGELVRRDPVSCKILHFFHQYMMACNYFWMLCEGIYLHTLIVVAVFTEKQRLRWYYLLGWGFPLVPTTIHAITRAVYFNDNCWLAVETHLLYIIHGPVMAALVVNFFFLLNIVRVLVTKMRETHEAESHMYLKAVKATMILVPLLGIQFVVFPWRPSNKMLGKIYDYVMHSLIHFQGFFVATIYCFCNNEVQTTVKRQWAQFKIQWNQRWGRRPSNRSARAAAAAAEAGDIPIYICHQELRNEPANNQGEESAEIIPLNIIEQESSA
Put shortly: (§1)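 Values are pKi, derived from IC50 of unlabelled sCT(8-32) displacing ^125I-sCT(8-32) (25–100 pM) from whole cells after overnight incubation at 4 °C. Specific binding was scaled between tracer-only total and 1 μM cold-peptide background.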

Another assay addresses T2, hCTR N365A (Homo sapiens, UniProt P30988, N365A).
T2 construct: c-Myc (N); expressed in transfected cells
T2 sequence (P30988 25-474 N365A): T1 sequence (P30988 25-474 S292A) with A268S, N341A
Put shortly:
as §1

Another assay deals with T3, hCTR Y299A (Homo sapiens, UniProt P30988, Y299A).
T3 construct: c-Myc (N); expressed in transfected cells
T3 sequence (P30988 25-474 Y299A): T1 sequence (P30988 25-474 S292A) with A268S, Y275A
Put shortly: as §1

Another assay addresses T4, hCTR F356A (Homo sapiens, UniProt P30988, F356A).
T4 construct: c-Myc (N); expressed in transfected cells
T4 sequence (P30988 25-474 F356A): T1 sequence (P30988 25-474 S292A) with A268S, F332A
The essentials: as §1

Consider “VLGKLSQELHKLQTYPRTNTGSGTP-NH2 [sCT(8-32)]”, for which the Ki was 0.0631 nM on hCTR S292A, 0.234 nM at hCTR N365A, 0.107 nM on hCTR Y299A and 0.141 nM on hCTR F356A.
